Data as given in PubChem BioAssay AID720701 (Sanford-Burnham Center for Chemical Genomics, 2013).
Active and inactive are the calls of the source. The rule behind the calls is not given here.

Target: Protein artemis (Homo sapiens) (UniProt Q96SD1)
Assay: Artemis endonuclease inhibitor potency, dose response, biochemical, fluorescence intensity (AID 720701)
Details: Recombinant Artemis endonuclease

Protein artemis (Homo sapiens), sequence (Q96SD1 whole entry, looked up): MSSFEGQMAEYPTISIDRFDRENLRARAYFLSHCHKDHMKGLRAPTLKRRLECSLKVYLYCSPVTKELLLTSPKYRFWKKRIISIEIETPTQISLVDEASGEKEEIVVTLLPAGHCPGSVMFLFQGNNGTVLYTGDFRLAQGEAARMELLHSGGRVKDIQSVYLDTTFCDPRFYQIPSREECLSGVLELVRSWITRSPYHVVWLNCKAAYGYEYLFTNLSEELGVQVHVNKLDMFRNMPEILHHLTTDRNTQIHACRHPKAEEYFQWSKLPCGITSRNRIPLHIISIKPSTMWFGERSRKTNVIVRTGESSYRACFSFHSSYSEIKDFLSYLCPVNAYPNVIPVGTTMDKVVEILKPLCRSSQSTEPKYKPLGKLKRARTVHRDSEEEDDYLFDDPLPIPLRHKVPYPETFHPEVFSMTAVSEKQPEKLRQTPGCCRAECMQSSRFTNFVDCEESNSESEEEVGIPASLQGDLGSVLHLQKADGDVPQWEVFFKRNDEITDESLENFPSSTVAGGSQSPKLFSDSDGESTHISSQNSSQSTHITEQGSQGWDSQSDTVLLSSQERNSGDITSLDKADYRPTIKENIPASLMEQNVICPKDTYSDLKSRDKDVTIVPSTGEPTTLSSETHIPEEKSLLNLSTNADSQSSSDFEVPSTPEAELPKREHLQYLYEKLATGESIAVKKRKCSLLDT

Row | IC50 | SMILES
1 | 16.4 µM | Nc1[nH]n2c(=O)c3c(nc2c1N=Nc1ccc(Cl)cc1)CCCC3
2 | 2.23 µM | COc1ccc(O)c(/C=N/Nc2nc(Nc3ccccc3)nc(-n3nc(C)cc3C)n2)c1
3 | 5 µM | Cc1cc(C)n(-c2nc(Nc3ccccc3C(F)(F)F)nc(-n3nc(C)cc3C)n2)n1
4 | 1.5 µM | COc1cccc(/C=N/Nc2nc(Nc3ccccc3)nc(-n3nc(C)cc3C)n2)c1O
5 | 11 µM | CCCCCCCCC/C(=N\O)c1ccccn1
6 | > 20 µM (inactive) | COc1ccc(C(=O)c2c(C(F)(F)F)oc3c2C(=O)c2ccccc2C3=O)cc1OC
7 | 16.2 µM | COc1cccc(N=Nc2c(N)[nH]n3c(=O)cc(-c4ccccc4)nc23)c1
8 | 3.64 µM | Oc1ccc2ccccc2c1C=NC12CN3CCN(CN(C3)C1)C2
9 | 2.65 µM | COc1ccc(Nc2nc(NCc3ccco3)nc(N/N=C/c3ccccc3)n2)cc1
10 | 4.68 µM | O=c1c2ccccc2nc(N/N=C/c2c(O)ccc3ccccc23)n1O
11 | 15.5 µM | CCN(CC)c1ccc(/C=N/Nc2nc3ccccc3[nH]2)c(O)c1
12 | > 20 µM (inactive) | Cc1nnc(-c2ccccc2)c(=O)n1/N=C/c1c(O)ccc2ccccc12
13 | > 20 µM (inactive) | N#CC1=C(N)Oc2n[nH]c(-c3cccs3)c2C1c1ccoc1 (stereo unspecified)
14 | 9.58 µM | O=C(CCCSc1ccccc1)Nc1nc(-c2ccccn2)cs1
15 | 3.62 µM | C/C(=N\O)c1ccccc1C(=O)O
16 | > 20 µM (inactive) | CN1/C(=N\O)c2cccc3cccc1c23
